Results from patent US7504421B2, “Substituted 2-thio-3,5-dicyano-4-aryl-6-aminopyridines and their use” (priority 1999, dated 2009).
Read-outs that look alike come from different tables or passages of the source.

Key:
[1] = biological target: T1, adenosine A2b receptor (Homo sapiens, UniProt P29275); test: Intracellular cAMP (cAMP-RIA) in CHO cells transfected with cDNA for the A2b receptor, agonist mode; assay type: cell-based; conditions: for activity at 10 µM / activity at 1 µM / activity at 0.1 µM / activity at 0.01 µM / activity at 0.001 µM: read-out: Concentration of intracellular cAMP in percent; for agonistic effect on cells which express the adenosine receptor A2b (in words): summary of cAMP data
T1 sequence (P29275 1-332): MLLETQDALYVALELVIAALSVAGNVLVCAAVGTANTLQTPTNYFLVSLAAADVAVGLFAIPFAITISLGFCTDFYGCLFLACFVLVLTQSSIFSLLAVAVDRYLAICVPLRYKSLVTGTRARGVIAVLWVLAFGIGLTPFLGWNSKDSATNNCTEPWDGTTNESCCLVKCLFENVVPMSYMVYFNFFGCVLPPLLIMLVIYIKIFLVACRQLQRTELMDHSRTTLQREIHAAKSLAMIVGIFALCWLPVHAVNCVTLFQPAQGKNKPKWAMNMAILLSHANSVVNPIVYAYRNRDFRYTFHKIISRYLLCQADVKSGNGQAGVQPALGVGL
Experimental: (§1) Cells of the permanent line CHO (Chinese Hamster Ovary) were stably transfected with cDNA for the adenosine receptor subtypes A1, A2a, A2b and A3. Binding of the substances to the A2a or A2b receptor subtypes was determined by measuring the intracellular cAMP concentration in these cells using a conventional radioimmunological assay (cAMP-RIA, IBL GmbH, Hamburg, Germany).
(§2) In the case of the action of the substances as agonists, binding of the substances is expressed in an increase of the intracellular cAMP concentration.
(§3) In the experiments below, the intracellular cAMP concentration in CHO cells which had been transfected with cDNA for the A2b receptor was determined. What is stated is the cAMP concentration in percent in all cells in a well of a microtiter plate, based on the control value obtained without any substances acting on the cells: […]

[2] = biological target: adenosine A2a receptor (Homo sapiens, UniProt P29274); test: Intracellular cAMP (cAMP-RIA) in CHO cells transfected with cDNA for the A2a receptor, agonist mode; assay type: cell-based; conditions: for Concentration of intracellular cAMP in percent: CHO cells with A2a receptor, based on control without substance; for effect on cells with the A2a receptor (in words): summary of cAMP data
Experimental: as §1, §2
as §3, with “A2a” for “A2b”

[3] = biological target: T2, adenosine A1 receptor (Homo sapiens, UniProt P30542); test: Intracellular cAMP in CHO cells transfected with cDNA for the A1 receptor after prestimulation with forskolin; assay type: cell-based; conditions: for remaining activity at 10 µM / remaining activity at 1 µM / remaining activity at 0.1 µM: CHO cells with A1 receptor, based on control prestimulated with 1 μM forskolin for 15 min (18% without forskolin), read-out: Concentration of intracellular cAMP in percent; for remaining activity at 10 µM: 10^-5 M; for remaining activity at 1 µM: 10^-6 M; for remaining activity at 0.1 µM: 10^-7 M; for receptor selectivity: adenosine A1 receptor: conclusion from cAMP data on A1, A2a, A2b cells; for agonistic effect on cells with the A1 receptor (in words): summary of cAMP data
T2 sequence (P30542 1-326): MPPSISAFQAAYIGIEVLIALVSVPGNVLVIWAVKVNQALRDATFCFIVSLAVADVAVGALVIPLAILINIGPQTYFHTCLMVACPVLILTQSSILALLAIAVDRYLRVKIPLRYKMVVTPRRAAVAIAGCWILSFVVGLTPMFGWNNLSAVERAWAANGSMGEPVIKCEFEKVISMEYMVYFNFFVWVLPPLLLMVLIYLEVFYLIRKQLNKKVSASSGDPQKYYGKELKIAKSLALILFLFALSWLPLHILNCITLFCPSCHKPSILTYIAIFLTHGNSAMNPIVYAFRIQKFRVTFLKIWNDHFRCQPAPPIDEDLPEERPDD
Experimental: as §1
The adenosine receptors A1 and A3 are coupled to a Gi protein, i.e. stimulation of these receptors results in an inhibition of adenylate cyclase and thus a reduction of the intracellular cAMP level. To identify A1/A3 receptor agonists, the adenylate cyclase is stimulated using forskolin. However, additional stimulation of the A1/A3 receptors inhibits adenylate cyclase, so that it is possible to detect A1/A3 receptor agonists by a comparatively low concentration of cAMP in the cell.
In the following experiments, the intracellular cAMP concentration in CHO cells transfected with the cDNA for the A1 receptor was determined.

[4] = tested on: Langendorff heart of the rat (coronary arteries); test: Langendorff heart of the rat: coronary perfusion pressure, left ventricular pressure, heart rate; conditions: isolated rat heart
Experimental: After opening the thoracic cage of anesthetized rats, the heart is removed quickly and introduced into a conventional Langendorff apparatus. The coronary arteries are perfused at a constant volume (10 ml/min), and the resulting perfusion pressure is recorded via an appropriate pressure sensor. In this arrangement, a decrease of the perfusion pressure corresponds to a relaxation of the coronary arteries. At the same time, the pressure which is developed by the heart during each contraction is measured via a balloon introduced into the left ventricle and a further pressure sensor. The frequency of the isolated beating heart is calculated from the number of contractions per time unit.
In this test arrangement, the following values were obtained for the coronary perfusion pressure (the stated percentage refers to the reduction of the coronary perfusion pressure in percent at the respective concentration):
At the stated concentrations, the substances tested had no effect on the pressure developed during the contraction in the left ventricle and no effect on the heart rate.

[5] = CHO cells with A2b receptor, 10^-5 M, based on control without substance
[6] = CHO cells with A2b receptor, 10^-6 M, based on control without substance
[7] = CHO cells with A2b receptor, 10^-7 M, based on control without substance

Sequence of adenosine A2a receptor (P29274 whole entry): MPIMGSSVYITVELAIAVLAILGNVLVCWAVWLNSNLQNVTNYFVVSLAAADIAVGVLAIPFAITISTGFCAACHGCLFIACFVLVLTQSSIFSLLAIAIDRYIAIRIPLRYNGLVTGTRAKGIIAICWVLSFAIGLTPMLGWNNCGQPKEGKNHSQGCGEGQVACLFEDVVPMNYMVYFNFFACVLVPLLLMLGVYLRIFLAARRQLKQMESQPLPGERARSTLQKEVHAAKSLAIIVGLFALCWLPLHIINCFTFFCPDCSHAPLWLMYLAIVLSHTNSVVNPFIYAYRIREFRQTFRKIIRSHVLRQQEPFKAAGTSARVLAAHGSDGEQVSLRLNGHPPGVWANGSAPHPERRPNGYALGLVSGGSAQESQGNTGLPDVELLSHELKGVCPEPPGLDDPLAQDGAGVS

| Compound | activity at 10 µM [1, 5] [%] | activity at 1 µM [1, 6] [%] | activity at 0.1 µM [1, 7] [%] | agonistic effect on cells which express the adenosine receptor A2b (in words) [1] | Concentration of intracellular cAMP in percent ([2]; 10^-5 M) [%] | Concentration of intracellular cAMP in percent ([2]; 10^-6 M) [%] | Concentration of intracellular cAMP in percent ([2]; 10^-7 M) [%] | effect on cells with the A2a receptor (in words) [2] | remaining activity at 10 µM [3] [%] | remaining activity at 1 µM [3] [%] | remaining activity at 0.1 µM [3] [%] | agonistic effect on cells with the A1 receptor (in words) [3] | Reduction of the coronary perfusion pressure in percent ([4]; concentration 10^-6 g/ml) | Reduction of the coronary perfusion pressure in percent ([4]; concentration 10^-7 g/ml) | other results |
| --- | --- | --- | --- | --- | --- | --- | --- | --- | --- | --- | --- | --- | --- | --- | --- |
| Cc1ccc(-c2c(C#N)c(N)nc(SCC(O)CO)c2C#N)cc1 (stereo not drawn) [A 198] |  |  |  |  |  |  |  |  |  |  |  |  | about 26% | no effect observed |  |
| Cc1ccc(-c2c(C#N)c(N)nc(SCc3ccccc3)c2C#N)cc1 [A 189] |  |  |  |  |  |  |  |  |  |  |  |  | about 37% | no effect observed |  |
| N#Cc1c(N)nc(SCc2ncc[nH]2)c(C#N)c1-c1ccc(O)cc1 [A 379] |  |  |  | clear agonistic effect | 291 | 235 | 218 | virtually no effect | 35 | 34 | 34 | comparably weaker effect | about 63% | about 64% | activity at 0.001 µM ([1]; CHO): 870%; activity at 0.01 µM ([1]; CHO): 846%; activity at 0.1 µM ([1]; CHO): 861%; activity at 1 µM ([1]; CHO): 936%; receptor selectivity: adenosine A2b receptor ([1]; conclusion from cAMP data on A1, A2a, A2b cells): selective adenosine A2b receptor agonist; Concentration of intracellular cAMP in percent ([2]; 10^-8 M): 160%; Concentration of intracellular cAMP in percent ([2]; 10^-9 M): 93% |
| N#Cc1c(N)nc(SCCO)c(C#N)c1-c1ccc(O)cc1 [Example 21, 2-Amino-6-[(2-hydroxyethyl)sulfanyl]-4-(4-hydroxyphenyl)-3,5-pyridinedicarbonitrile] |  |  |  |  |  | 117 | 143 |  |  |  |  |  | about 75% | about 40% | activity at 0.1 µM ([1]; CHO): 253%; activity at 1 µM ([1]; CHO): 432%; activity at 10 µM ([1]; CHO): 384% |

More lines, main results first:

| activity at 10 µM [1, 5] [%] | activity at 1 µM [1, 6] [%] | activity at 0.1 µM [1, 7] [%] | agonistic effect on cells which express the adenosine receptor A2b (in words) [1] | Concentration of intracellular cAMP in percent ([2]; 10^-5 M) [%] | Concentration of intracellular cAMP in percent ([2]; 10^-6 M) [%] | Concentration of intracellular cAMP in percent ([2]; 10^-7 M) [%] | effect on cells with the A2a receptor (in words) [2] | remaining activity at 10 µM [3] [%] | remaining activity at 1 µM [3] [%] | remaining activity at 0.1 µM [3] [%] | agonistic effect on cells with the A1 receptor (in words) [3] | Compound | Reduction of the coronary perfusion pressure in percent ([4]; concentration 10^-6 g/ml) | Reduction of the coronary perfusion pressure in percent ([4]; concentration 10^-7 g/ml) | other results |
| --- | --- | --- | --- | --- | --- | --- | --- | --- | --- | --- | --- | --- | --- | --- | --- |
| 571 | 586 | 438 | considerably weaker effect | 212 | 146 | 107 | virtually no effect | 21 | 23 | 28 | clear agonistic effect | N#Cc1c(N)nc(SCCO)c(C#N)c1-c1ccccc1 [A 104] |  |  | activity at 0.01 µM ([1]; CHO cells with A2b receptor, 10^-8 M, based on control without substance): 178%; activity at 0.001 µM ([1]; CHO cells with A2b receptor, 10^-9 M, based on control without substance): 100%; Concentration of intracellular cAMP in percent ([2]; 10^-8 M): 107%; Concentration of intracellular cAMP in percent ([2]; 10^-9 M): 104%; receptor selectivity: adenosine A1 receptor [3]: selective adenosine A1 receptor agonists |
| 784 | 674 | 347 | considerably weaker effect | 317 | 200 | 117 | virtually no effect | 22 | 24 | 18 | clear agonistic effect | N#Cc1c(N)nc(SCCO)c(C#N)c1-c1cccc(O)c1 [A 43] | about 68% | about 42% | receptor selectivity: adenosine A1 receptor [3]: selective adenosine A1 receptor agonists |
| 753 | 716 | 463 |  | 183 | 108 | 67 |  |  |  |  |  | CC(O)CSc1nc(N)c(C#N)c(-c2cccc(O)c2)c1C#N (stereo not drawn) [A 46] |  |  |  |
| 900 | 947 | 837 | clear agonistic effect | 208 | 117 | 92 | virtually no effect |  |  |  |  | N#Cc1c(N)nc(SCC(N)=O)c(C#N)c1-c1ccc(O)cc1 [A 1] |  |  |  |
